Assay results from article PMC11277489, “Novel Piperazine Derivatives of Vindoline as Anticancer Agents” (International Journal of Molecular Sciences, 2024).

Test system: SK-MEL-5
Assay: NCI60 one-dose screen (10 μM), Melanoma
Type: cell-based, human
Details: Homo sapiens, SK-MEL-5, read-out: Growth percent rate

SMILES	activity at 10 µM [%]
CCC12C=CCN3CCC4(c5ccc(OC)cc5N(C)C4C(O)(C(=O)OC)C1O)C32 (stereo not shown) [Compound 13, 17-desacetylvindoline]	90.5
CCC12C=CCN3CCC4(c5cc(NC(=O)CN6CCN(Cc7ccc(F)cc7)CC6)c(OC)cc5N(C)C4C(O)(C(=O)OC)C1OC(C)=O)C32 (stereo not shown) [Compound 19]	92.8

Test system: SR
Assay: NCI60 one-dose screen (10 μM), Leukemia
Type: cell-based
Details: Homo sapiens, read-out: Growth percent rate

SMILES	activity at 10 µM [%]
CCC12C=CCN3CCC4(c5cc(NC(=O)CN6CCN(Cc7ccc(F)cc7)CC6)c(OC)cc5N(C)C4C(O)(C(=O)OC)C1OC(C)=O)C32 (stereo not shown) [Compound 19]	75.3

Test system: M14
Assay: NCI60 one-dose screen (10 μM), Melanoma
Type: cell-based
Details: Homo sapiens, M14, read-out: Growth percent rate

SMILES	activity at 10 µM [%]
CCC12C=CCN3CCC4(c5ccc(OC)cc5N(C)C4C(O)(C(=O)OC)C1O)C32 (stereo not shown) [Compound 13, 17-desacetylvindoline]	94.7
CCC12C=CCN3CCC4(c5cc(NC(=O)CN6CCN(Cc7ccc(F)cc7)CC6)c(OC)cc5N(C)C4C(O)(C(=O)OC)C1OC(C)=O)C32 (stereo not shown) [Compound 19]	102

Test system: NCI-H226
Assay: NCI60 one-dose screen (10 μM), Non-small Cell Lung Cancer
Type: cell-based
Details: Homo sapiens, NCI-H226, read-out: Growth percent rate

SMILES	activity at 10 µM [%]
CCC12C=CCN3CCC4(c5ccc(OC)cc5N(C)C4C(O)(C(=O)OC)C1O)C32 (stereo not shown) [Compound 13, 17-desacetylvindoline]	88.5
CCC12C=CCN3CCC4(c5cc(NC(=O)CN6CCN(Cc7ccc(F)cc7)CC6)c(OC)cc5N(C)C4C(O)(C(=O)OC)C1OC(C)=O)C32 (stereo not shown) [Compound 19]	97.8

Test system: PC-3
Assay: NCI60 one-dose screen (10 μM), Prostate Cancer
Type: cell-based
Details: Homo sapiens, PC-3, read-out: Growth percent rate

SMILES	activity at 10 µM [%]
CCC12C=CCN3CCC4(c5ccc(OC)cc5N(C)C4C(O)(C(=O)OC)C1O)C32 (stereo not shown) [Compound 13, 17-desacetylvindoline]	96.5
CCC12C=CCN3CCC4(c5cc(NC(=O)CN6CCN(Cc7ccc(F)cc7)CC6)c(OC)cc5N(C)C4C(O)(C(=O)OC)C1OC(C)=O)C32 (stereo not shown) [Compound 19]	73.6

Test system: SK-OV-3
Assay: NCI60 one-dose screen (10 μM), Ovarian Cancer
Type: cell-based
Details: Homo sapiens, SK-OV-3, read-out: Growth percent rate

SMILES	activity at 10 µM [%]
CCC12C=CCN3CCC4(c5cc(NC(=O)CN6CCN(Cc7ccc(F)cc7)CC6)c(OC)cc5N(C)C4C(O)(C(=O)OC)C1OC(C)=O)C32 (stereo not shown) [Compound 19]	108

Test system: MDA-MB-468
Assay: NCI60 one-dose screen (10 μM), Breast Cancer
Type: cell-based
Details: Homo sapiens, MDA-MB-468, read-out: Growth percent rate

SMILES	activity at 10 µM [%]
CCC12C=CCN3CCC4(c5ccc(OC)cc5N(C)C4C(O)(C(=O)OC)C1O)C32 (stereo not shown) [Compound 13, 17-desacetylvindoline]	92.2

Test system: HOP-92
Assay: NCI60 one-dose screen (10 μM), Non-small Cell Lung Cancer
Type: cell-based
Details: Homo sapiens, HOP-92, read-out: Growth percent rate

SMILES	activity at 10 µM [%]
CCC12C=CCN3CCC4(c5ccc(OC)cc5N(C)C4C(O)(C(=O)OC)C1O)C32 (stereo not shown) [Compound 13, 17-desacetylvindoline]	88.6

Test system: MDA-MB-231/ATCC
Assay: NCI60 one-dose screen (10 μM), Breast Cancer
Type: cell-based, human
Details: Homo sapiens, MDA-MB-231, read-out: Growth percent rate

SMILES	activity at 10 µM [%]
CCC12C=CCN3CCC4(c5ccc(OC)cc5N(C)C4C(O)(C(=O)OC)C1O)C32 (stereo not shown) [Compound 13, 17-desacetylvindoline]	101
CCC12C=CCN3CCC4(c5cc(NC(=O)CN6CCN(Cc7ccc(F)cc7)CC6)c(OC)cc5N(C)C4C(O)(C(=O)OC)C1OC(C)=O)C32 (stereo not shown) [Compound 19]	102

Test system: OVCAR-5
Assay: NCI60 one-dose screen (10 μM), Ovarian Cancer
Type: cell-based
Details: Homo sapiens, OVCAR-5, read-out: Growth percent rate

SMILES	activity at 10 µM [%]
CCC12C=CCN3CCC4(c5ccc(OC)cc5N(C)C4C(O)(C(=O)OC)C1O)C32 (stereo not shown) [Compound 13, 17-desacetylvindoline]	91.2
CCC12C=CCN3CCC4(c5cc(NC(=O)CN6CCN(Cc7ccc(F)cc7)CC6)c(OC)cc5N(C)C4C(O)(C(=O)OC)C1OC(C)=O)C32 (stereo not shown) [Compound 19]	111

Test system: BT-549
Assay: NCI60 one-dose screen (10 μM), Breast Cancer
Type: cell-based
Details: Homo sapiens, BT-549, read-out: Growth percent rate

SMILES	activity at 10 µM [%]
CCC12C=CCN3CCC4(c5ccc(OC)cc5N(C)C4C(O)(C(=O)OC)C1O)C32 (stereo not shown) [Compound 13, 17-desacetylvindoline]	101
CCC12C=CCN3CCC4(c5cc(NC(=O)CN6CCN(Cc7ccc(F)cc7)CC6)c(OC)cc5N(C)C4C(O)(C(=O)OC)C1OC(C)=O)C32 (stereo not shown) [Compound 19]	101

Test system: HCC-2998
Assay: NCI60 one-dose screen (10 μM), Colon Cancer
Type: cell-based
Details: Homo sapiens, HCC 2998, read-out: Growth percent rate

SMILES	activity at 10 µM [%]
CCC12C=CCN3CCC4(c5ccc(OC)cc5N(C)C4C(O)(C(=O)OC)C1O)C32 (stereo not shown) [Compound 13, 17-desacetylvindoline]	96.8
CCC12C=CCN3CCC4(c5cc(NC(=O)CN6CCN(Cc7ccc(F)cc7)CC6)c(OC)cc5N(C)C4C(O)(C(=O)OC)C1OC(C)=O)C32 (stereo not shown) [Compound 19]	102

Test system: HT29
Assay: NCI60 one-dose screen (10 μM), Colon Cancer
Type: cell-based
Details: Homo sapiens, HT-29, read-out: Growth percent rate

SMILES	activity at 10 µM [%]
CCC12C=CCN3CCC4(c5ccc(OC)cc5N(C)C4C(O)(C(=O)OC)C1O)C32 (stereo not shown) [Compound 13, 17-desacetylvindoline]	102
CCC12C=CCN3CCC4(c5cc(NC(=O)CN6CCN(Cc7ccc(F)cc7)CC6)c(OC)cc5N(C)C4C(O)(C(=O)OC)C1OC(C)=O)C32 (stereo not shown) [Compound 19]	108

Test system: UO-31
Assay: NCI60 one-dose screen (10 μM), Renal Cancer
Type: cell-based
Details: Homo sapiens, UO-31, read-out: Growth percent rate

SMILES	activity at 10 µM [%]
CCC12C=CCN3CCC4(c5ccc(OC)cc5N(C)C4C(O)(C(=O)OC)C1O)C32 (stereo not shown) [Compound 13, 17-desacetylvindoline]	87.6
CCC12C=CCN3CCC4(c5cc(NC(=O)CN6CCN(Cc7ccc(F)cc7)CC6)c(OC)cc5N(C)C4C(O)(C(=O)OC)C1OC(C)=O)C32 (stereo not shown) [Compound 19]	89.1

Test system: NCI/ADR-RES
Assay: NCI60 one-dose screen (10 μM), Ovarian Cancer
Type: cell-based
Details: Homo sapiens, read-out: Growth percent rate

SMILES	activity at 10 µM [%]
CCC12C=CCN3CCC4(c5ccc(OC)cc5N(C)C4C(O)(C(=O)OC)C1O)C32 (stereo not shown) [Compound 13, 17-desacetylvindoline]	99.4
CCC12C=CCN3CCC4(c5cc(NC(=O)CN6CCN(Cc7ccc(F)cc7)CC6)c(OC)cc5N(C)C4C(O)(C(=O)OC)C1OC(C)=O)C32 (stereo not shown) [Compound 19]	97.3

Test system: T-47D
Assay: NCI60 one-dose screen (10 μM), Breast Cancer
Type: cell-based
Details: Homo sapiens, T47D, read-out: Growth percent rate

SMILES	activity at 10 µM [%]
CCC12C=CCN3CCC4(c5ccc(OC)cc5N(C)C4C(O)(C(=O)OC)C1O)C32 (stereo not shown) [Compound 13, 17-desacetylvindoline]	108
CCC12C=CCN3CCC4(c5cc(NC(=O)CN6CCN(Cc7ccc(F)cc7)CC6)c(OC)cc5N(C)C4C(O)(C(=O)OC)C1OC(C)=O)C32 (stereo not shown) [Compound 19]	93

Test system: UACC-62
Assay: NCI60 one-dose screen (10 μM), Melanoma
Type: cell-based
Details: Homo sapiens, UACC-62, read-out: Growth percent rate

SMILES	activity at 10 µM [%]
CCC12C=CCN3CCC4(c5ccc(OC)cc5N(C)C4C(O)(C(=O)OC)C1O)C32 (stereo not shown) [Compound 13, 17-desacetylvindoline]	90.7
CCC12C=CCN3CCC4(c5cc(NC(=O)CN6CCN(Cc7ccc(F)cc7)CC6)c(OC)cc5N(C)C4C(O)(C(=O)OC)C1OC(C)=O)C32 (stereo not shown) [Compound 19]	96.9

Test system: SNB-19
Assay: NCI60 one-dose screen (10 μM), CNS Cancer
Type: cell-based
Details: Homo sapiens, SNB-19, read-out: Growth percent rate

SMILES	activity at 10 µM [%]
CCC12C=CCN3CCC4(c5ccc(OC)cc5N(C)C4C(O)(C(=O)OC)C1O)C32 (stereo not shown) [Compound 13, 17-desacetylvindoline]	97.4
CCC12C=CCN3CCC4(c5cc(NC(=O)CN6CCN(Cc7ccc(F)cc7)CC6)c(OC)cc5N(C)C4C(O)(C(=O)OC)C1OC(C)=O)C32 (stereo not shown) [Compound 19]	97.2

Test system: DU-145
Assay: NCI60 one-dose screen (10 μM), Prostate Cancer
Type: cell-based
Details: Homo sapiens, DU-145, read-out: Growth percent rate

SMILES	activity at 10 µM [%]
CCC12C=CCN3CCC4(c5ccc(OC)cc5N(C)C4C(O)(C(=O)OC)C1O)C32 (stereo not shown) [Compound 13, 17-desacetylvindoline]	110
CCC12C=CCN3CCC4(c5cc(NC(=O)CN6CCN(Cc7ccc(F)cc7)CC6)c(OC)cc5N(C)C4C(O)(C(=O)OC)C1OC(C)=O)C32 (stereo not shown) [Compound 19]	111
